Test results published in publication PMC2662044 (European journal of medicinal chemistry, 2008).
“Also recorded” adds a separate entry of the source. Read-outs that look alike come from different tables or passages of the source.

Assays:
Kv1.5 [1] = biological target: T1, Kv1.5 (Homo sapiens, UniProt P22460); conditions: Table 1, cited from earlier work; for IC50: read-out: IC50 value Kv1.5
Kv1.3 [2] = biological target: T2, Kv1.3 (Mus musculus, UniProt P16390); format: cell-based; conditions: for IC50: IC50 Kv1.3, text; for Effect on Kv1.3: concentration of 10 µM where stated
T2 sequence (P16390 whole entry): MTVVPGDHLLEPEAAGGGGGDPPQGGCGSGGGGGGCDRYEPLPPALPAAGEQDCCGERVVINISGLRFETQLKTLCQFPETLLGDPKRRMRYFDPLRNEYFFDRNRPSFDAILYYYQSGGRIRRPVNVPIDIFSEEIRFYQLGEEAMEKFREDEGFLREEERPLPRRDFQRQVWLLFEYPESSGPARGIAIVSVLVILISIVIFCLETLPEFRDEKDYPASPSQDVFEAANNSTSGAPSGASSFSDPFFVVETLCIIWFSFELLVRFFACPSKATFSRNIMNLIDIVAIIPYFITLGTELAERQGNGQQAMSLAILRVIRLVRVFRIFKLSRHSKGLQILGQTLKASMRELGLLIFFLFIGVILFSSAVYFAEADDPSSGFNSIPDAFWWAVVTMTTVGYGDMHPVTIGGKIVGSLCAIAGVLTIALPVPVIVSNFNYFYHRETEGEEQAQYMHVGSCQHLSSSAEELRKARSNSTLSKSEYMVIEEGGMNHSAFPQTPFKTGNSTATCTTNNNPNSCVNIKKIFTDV

Kv1.5 [3] = biological target: T1, Kv1.5; experiment: Kv1.5 inhibition, whole-cell patch-clamp, currents recorded from MEL-C88 cells; format: cell-based; conditions: for Selectivity IC50 (Kv1.5)/IC50 (Kv1.3): Table 1
[4] = HPLC studies on stability in DMSO stock and Ringer solution; format: physicochemical; conditions: data not shown
type-1 diabetes = conditions: rat models; cited from earlier work
[5] = cited from earlier work
[6] = cited from earlier work; remark: listed apart in the source
[7] = administration for 28 days or 6 months, rats or rhesus macaques; cited from earlier work
[8] = tested on: oxazolone-induced allergic contact dermatitis; conditions: rat models; cited from earlier work
Kv1.3 [9] = biological target: T2, Kv1.3; conditions: read-out: IC50 Kv1.3; cited from earlier work

T1 sequence (P22460 whole entry): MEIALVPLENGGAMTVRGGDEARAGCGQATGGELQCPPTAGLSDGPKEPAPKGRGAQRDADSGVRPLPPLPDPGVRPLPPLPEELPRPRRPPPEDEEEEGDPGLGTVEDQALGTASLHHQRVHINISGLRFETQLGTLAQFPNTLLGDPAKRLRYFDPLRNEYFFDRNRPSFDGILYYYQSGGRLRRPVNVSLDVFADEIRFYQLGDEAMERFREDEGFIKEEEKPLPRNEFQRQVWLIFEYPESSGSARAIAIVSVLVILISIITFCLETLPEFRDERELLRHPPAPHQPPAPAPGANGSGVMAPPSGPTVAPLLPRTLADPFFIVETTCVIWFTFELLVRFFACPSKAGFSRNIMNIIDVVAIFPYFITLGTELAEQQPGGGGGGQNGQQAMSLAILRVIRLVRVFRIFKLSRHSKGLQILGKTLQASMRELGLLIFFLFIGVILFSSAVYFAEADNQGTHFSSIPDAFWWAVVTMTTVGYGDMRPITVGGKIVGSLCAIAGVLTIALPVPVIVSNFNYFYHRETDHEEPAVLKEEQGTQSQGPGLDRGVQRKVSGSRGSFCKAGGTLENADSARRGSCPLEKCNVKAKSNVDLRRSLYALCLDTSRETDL

COc1c2ccoc2cc2oc(=O)ccc12 [Compound 5-MOP, 5-methoxypsoralen]
Selectivity IC50 (Kv1.5)/IC50 (Kv1.3) (Kv1.5 [1]): 1.75
IC50 (Kv1.5 [1]): 177000 nM

c1ccc(OCCCCOc2ccccc2)cc1 [Compound 15, 1,1'[1,4-Butanediyl(oxy)]bis-benzene]
IC50 (Kv1.3 [2]): > 10000 nM

c1ccc(OCCCCOc2cccc3ccccc23)cc1 [Compound 16, 1-(4-Phenoxybutoxy)naphthalene]
IC50 (Kv1.3 [2]): > 10000 nM

c1ccc(OCCCCOc2ccnc3ccccc23)cc1 [Compound 17, 4-(4-Phenoxybutoxy)quinoline]
IC50 (Kv1.5 [3]): 3500 nM
Selectivity (IC50 for Kv1.5 divided by the IC50 for Kv1.3) (Kv1.5 [3]): 0.34 fold
Times more potent on Kv1.5 than on Kv1.3 (Kv1.5 [3]): roughly 3 times
Selectivity IC50 (Kv1.5)/IC50 (Kv1.3) (Kv1.5 [3]): < 0.35
Effect on Kv1.3 (Kv1.3 [2]): ineffective

c1ccc(OCCCCOc2ncnc3ccccc23)cc1 [Compound 19, 4-(4-Phenoxybutoxy)quinazoline]
IC50 (Kv1.5 [3]): ~25000 nM
Effect on Kv1.3 (Kv1.3 [2]): ineffective

O=c1cc(OCCCCOc2ccccc2)c2ccccc2o1 [Compound 21, 4-(4-Phenoxybutoxy)-2H-[1]benzopyran-2-one]
IC50 (Kv1.5 [3]): 1500 nM
Selectivity IC50 (Kv1.5)/IC50 (Kv1.3) (Kv1.5 [3]): 1.69

COc1c2occc2c(OC)c2c(OCCCCOc3ccccc3)cc(=O)oc12 [Compound 23, 5,8-Dimethoxy-4-(4-phenoxybutoxy)psoralen]
IC50 (Kv1.5 [3]): 850 nM
Selectivity IC50 (Kv1.5)/IC50 (Kv1.3) (Kv1.5 [3]): 1.89

O=C1c2ccccc2C(=O)c2c(OCCCCOc3ccccc3)cccc21 [Compound 25, 1-(4-Phenoxybutoxy)anthraquinone]
IC50 (Kv1.5 [3]): 10000 nM
Selectivity IC50 (Kv1.5)/IC50 (Kv1.3) (Kv1.5 [3]): 1.43

c1ccc(OCCCCOc2cc3ccccc3c3ccccc23)cc1 [Compound 26, 9-(4-Phenoxybutoxy)phenanthrene]
IC50 (Kv1.3 [2]): > 10000 nM

COc1cccc2c(=O)c3ccccc3n(CCCCOc3ccccc3)c12 [Compound 28, 9,10-Dihydro-4-methoxy-N-(4-phenoxybutyl)acridin-9-one]
IC50 (Kv1.5 [3]): 450 nM
Selectivity IC50 (Kv1.5)/IC50 (Kv1.3) (Kv1.5 [3]): 2.73

COc1cc2nc3occc3c(OCCCCOc3ccccc3)c2cc1OC [Compound 34, 6,7-Dimethoxy-4-(4-phenoxybutoxy)furo[2,3-b]quinoline]
IC50 (Kv1.5 [3]): 480 nM
Selectivity IC50 (Kv1.5)/IC50 (Kv1.3) (Kv1.5 [3]): 3.2
Kinetics of block (mode of Kv1.3 block) (Kv1.3 [2]): block the C-type inactivated state; also recorded: use-dependence

COc1ccc2c(OCCCCOc3ccccc3)c3ccoc3nc2c1OC [Compound 35, 7,8-Dimethoxy-4-(4-phenoxybutoxy)furo[2,3-b]quinoline]
Kinetics of block (mode of Kv1.3 block) (Kv1.3 [2]): block the C-type inactivated state; also recorded: use-dependence

Cc1cc(=O)c2c(OCCCCOc3ccccc3)c3ccoc3cc2o1 [Compound 36, 7-Methyl-4-(4-phenoxybutoxy)-5H-furo[3,2-g][1]benzopyran-5-one]
IC50 (Kv1.5 [3]): 310 nM
Selectivity IC50 (Kv1.5)/IC50 (Kv1.3) (Kv1.5 [3]): 1.33
Kinetics of block (mode of Kv1.3 block) (Kv1.3 [2]): block the C-type inactivated state; also recorded: use-dependence

COc1c2occc2c(OCCCCOc2ccccc2)c2c(=O)cc(C)oc12 [Compound 37, 9-Methoxy-7-methyl-4-(4-phenoxybutoxy)-5H-furo[3,2-g][1]benzopyran-5-one]
IC50 (Kv1.5 [3]): 2500 nM
Selectivity IC50 (Kv1.5)/IC50 (Kv1.3) (Kv1.5 [3]): 1.67

O=c1ccc2c(OCCCCOc3ccccc3)cccc2o1 [Compound 42, 5-(4-Phenoxybutoxy)-2H-[1]benzopyran-2-one]
IC50 (Kv1.5 [3]): 520 nM
Selectivity IC50 (Kv1.5)/IC50 (Kv1.3) (Kv1.5 [3]): 3.47

Cc1cc(=O)c2c(OCCCCOc3ccccc3)c3c(cc2o1)OCO3 [Compound 56, 2-Methyl-6,7-methylendioxy-5-(4-phenoxybutoxy)-4H-[1]benzopyran-4-one]
Times more potent on Kv1.5 than on Kv1.3 (Kv1.5 [3]): roughly 3 times

COc1c2ccoc2c(OCCCCOc2ccccc2)c2oc(=O)cc(C)c12 [Compound 63, 5-Methoxy-4-methyl-8-(4-phenoxybutoxy)psoralen]
IC50 (Kv1.5 [3]): 280 nM
Times more potent on Kv1.5 than on Kv1.3 (Kv1.5 [3]): roughly 3 times
Selectivity IC50 (Kv1.5)/IC50 (Kv1.3) (Kv1.5 [3]): 0.88
Kinetics of block (mode of Kv1.3 block) (Kv1.3 [2]): open-channel blockers

S=c1ccc2c(OCCCCOc3ccccc3)c3ccoc3cc2o1 [Compound 73, 4-(4-Phenoxybutoxy)-7H-furo[3,2-g]chromene-7-thione]
IC50 (Kv1.5 [3]): 380 nM
Times more potent on Kv1.5 than on Kv1.3 (Kv1.5 [3]): 22 times
Selectivity IC50 (Kv1.5)/IC50 (Kv1.3) (Kv1.5 [3]): 22
Stability in DMSO stock solutions (HPLC) ([4]; DMSO stock solutions): more than 12 months
Stability in Ringer solution (HPLC) ([4]; Ringer solution): at least 24 hours
Kinetics of block (mode of Kv1.3 block) (Kv1.3 [2]): block the C-type inactivated state; also recorded: use-dependence

O=c1ccc2c(OCCCCOc3ccccc3)c3ccoc3cc2o1 [PAP-1, 5-(4-phenoxybutoxy)psoralen]
Effect on onset and incidence of type-1 diabetes (type-1 diabetes): significantly delays the onset and reduces the incidence of type-1 diabetes
in vitro or in vivo toxicity [5]: does not display any in vitro or in vivo toxicity
phototoxicity [6]: not phototoxic
Changes in liver enzymes or liver pathology [7]: does not lead to any changes in liver enzymes or liver pathology
Potency on Kv1.3 in comparison to 5-MOP (Kv1.3 [2]): more than 1000 fold
Effect on oxazolone-induced allergic contact dermatitis [8]: effectively suppresses oxazolone-induced allergic contact dermatitis
IC50 (Kv1.5 [1]): 45 nM

COc1cc2nc3occc3c(OC)c2cc1OC [kokusagenine, 4,6,7-trimethoxyfuro[2,3-b]quinoline]
IC50 (Kv1.3 [9]): 10000 nM
